Like-named read-outs stand apart in the source and are kept apart here.
Key:
Format in all cases: in vivo
[1] = tested on: ragweed (common ragweed, Ambrosia elatior); test: Test A postemergence; settings: Ambrosia artemisiifolia, post-emergence, 240 h; for pest or weed control at 125 g/ha: 125 g ai/ha, visual injury vs untreated controls after approx. 10 d, 0 = no effect, 100 = complete control, read-out: Ragweed plant response rating (0 to 100 scale); for pest or weed control at 500 g/ha: 500 g ai/ha
How it was run: (§1)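 Preemergence directed soil spray on seeded pots, or postemergence application to plants 2–10 cm, one- to two-leaf. Solvent mixture non-phytotoxic, with surfactant. Scored ~10 d later, visually, 0–100 vs untreated.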

corn (Zea mays) = test: Test A postemergence; settings: Zea mays, post-emergence, 240 h; for plant injury at 125 g/ha: 125 g ai/ha, visual injury vs untreated controls after approx. 10 d, 0 = no effect, 100 = complete control, read-out: Corn plant response rating (0 to 100 scale)
How it was run: as §1

[2] = tested on: Galium (catchweed bedstraw, Galium aparine); test: Test A postemergence; settings: Galium, post-emergence, 240 h; for pest or weed control at 125 g/ha: 125 g ai/ha, visual injury vs untreated controls after approx. 10 d, 0 = no effect, 100 = complete control, read-out: Galium plant response rating (0 to 100 scale); for pest or weed control at 500 g/ha: 500 g ai/ha
How it was run: as §1

[3] = tested on: pigweed (Amaranthus retroflexus); test: Test A postemergence; settings: Amaranthus retroflexus, post-emergence, 240 h; for pest or weed control at 125 g/ha: 125 g ai/ha, visual injury vs untreated controls after approx. 10 d, 0 = no effect, 100 = complete control, read-out: Pigweed plant response rating (0 to 100 scale); for pest or weed control at 500 g/ha: 500 g ai/ha
How it was run: as §1

[4] = tested on: giant foxtail (Setaria faberii); test: Test A postemergence; settings: Setaria faberi, post-emergence, 240 h; for pest or weed control at 125 g/ha: 125 g ai/ha, visual injury vs untreated controls after approx. 10 d, 0 = no effect, 100 = complete control, read-out: Foxtail, Giant plant response rating (0 to 100 scale); for pest or weed control at 500 g/ha: 500 g ai/ha
How it was run: as §1

[5] = tested on: ryegrass, Italian (Italian ryegrass, Lolium multiflorum); test: Test A postemergence; settings: Lolium multiflorum, post-emergence, 240 h; for pest or weed control at 125 g/ha: 125 g ai/ha, visual injury vs untreated controls after approx. 10 d, 0 = no effect, 100 = complete control, read-out: Ryegrass, Italian plant response rating (0 to 100 scale); for pest or weed control at 500 g/ha: 500 g ai/ha
How it was run: as §1

[6] = tested on: wheat (Triticum aestivum); test: Test A postemergence; settings: Triticum aestivum, post-emergence, 240 h; for plant injury at 500 g/ha: 500 g ai/ha
How it was run: as §1

Kochia (Kochia scoparia) [7] = test: Test A postemergence; settings: Bassia scoparia, post-emergence, 240 h; for pest or weed control at 125 g/ha: 125 g ai/ha, visual injury vs untreated controls after approx. 10 d, 0 = no effect, 100 = complete control, read-out: Kochia plant response rating (0 to 100 scale); for pest or weed control at 500 g/ha: 500 g ai/ha
How it was run: as §1

[8] = tested on: barnyardgrass (Echinochloa crus-galli); test: Test A postemergence; settings: Echinochloa crus-galli, post-emergence, 240 h; for pest or weed control at 125 g/ha: 125 g ai/ha, visual injury vs untreated controls after approx. 10 d, 0 = no effect, 100 = complete control, read-out: Barnyardgrass plant response rating (0 to 100 scale); for pest or weed control at 500 g/ha: 500 g ai/ha
How it was run: as §1

[9] = tested on: ragweed (common ragweed, Ambrosia elatior); test: Test A preemergence; settings: Ambrosia artemisiifolia, pre-emergence, 240 h, preemergence, 0 to 100 scale where 0 is no effect and 100 is complete control, read-out: Ragweed plant response rating; for pest or weed control at 125 g/ha: 125 g ai/ha, visual injury rating, approximately 10 d; for pest or weed control at 500 g/ha: 500 g ai/ha
How it was run: as §1

[10] = tested on: pigweed (Amaranthus retroflexus); test: Test A preemergence; settings: Amaranthus retroflexus, pre-emergence, 240 h, preemergence, 0 to 100 scale where 0 is no effect and 100 is complete control, read-out: Pigweed plant response rating; for pest or weed control at 125 g/ha: 125 g ai/ha, visual injury rating, approximately 10 d; for pest or weed control at 500 g/ha: 500 g ai/ha
[11] = tested on: giant foxtail (Setaria faberii); test: Test A preemergence; settings: Setaria faberi, pre-emergence, 240 h, preemergence, 0 to 100 scale where 0 is no effect and 100 is complete control, read-out: Foxtail, Giant plant response rating; for pest or weed control at 125 g/ha: 125 g ai/ha, visual injury rating, approximately 10 d; for pest or weed control at 500 g/ha: 500 g ai/ha
How it was run: as §1

[12] = tested on: ryegrass, Italian (Italian ryegrass, Lolium multiflorum); test: Test A preemergence; settings: Lolium multiflorum, pre-emergence, 240 h, preemergence, 0 to 100 scale where 0 is no effect and 100 is complete control, read-out: Ryegrass, Italian plant response rating; for pest or weed control at 125 g/ha: 125 g ai/ha, visual injury rating, approximately 10 d; for pest or weed control at 500 g/ha: 500 g ai/ha
How it was run: as §1

Kochia (Kochia scoparia) [13] = test: Test A preemergence; settings: Bassia scoparia, pre-emergence, 240 h, preemergence, 0 to 100 scale where 0 is no effect and 100 is complete control, read-out: Kochia plant response rating; for pest or weed control at 125 g/ha: 125 g ai/ha, visual injury rating, approximately 10 d; for pest or weed control at 500 g/ha: 500 g ai/ha
How it was run: as §1

[14] = tested on: barnyardgrass (Echinochloa crus-galli); test: Test A preemergence; settings: Echinochloa crus-galli, pre-emergence, 240 h, preemergence, 0 to 100 scale where 0 is no effect and 100 is complete control, read-out: Barnyardgrass plant response rating; for pest or weed control at 125 g/ha: 125 g ai/ha, visual injury rating, approximately 10 d; for pest or weed control at 500 g/ha: 500 g ai/ha
How it was run: as §1

SMILES | pest or weed control at 125 g/ha ([1]; postemergence) [%] | plant injury at 125 g/ha (corn (Zea mays); postemergence) [%] | pest or weed control at 125 g/ha ([2]; postemergence) [%] | pest or weed control at 125 g/ha ([3]; postemergence) [%] | pest or weed control at 125 g/ha ([4]; postemergence) [%] | pest or weed control at 125 g/ha ([5]; postemergence) [%] | pest or weed control at 125 g/ha (Kochia (Kochia scoparia) [7]; postemergence) [%] | pest or weed control at 125 g/ha ([8]; postemergence) [%] | pest or weed control at 125 g/ha [9] [%] | pest or weed control at 500 g/ha [9] [%] | pest or weed control at 125 g/ha [10] [%] | pest or weed control at 500 g/ha [10] [%] | pest or weed control at 125 g/ha [11] [%] | pest or weed control at 500 g/ha [11] [%] | pest or weed control at 125 g/ha [12] [%] | pest or weed control at 500 g/ha [12] [%] | pest or weed control at 125 g/ha (Kochia (Kochia scoparia) [13]) [%] | pest or weed control at 500 g/ha (Kochia (Kochia scoparia) [13]) [%] | pest or weed control at 125 g/ha [14] [%] | pest or weed control at 500 g/ha [14] [%] | other results
N#Cc1cc([C@H]2CNC(=O)[C@]2(O)C(=O)Nc2ccccc2F)ccc1F [Compound 1200] | 0 | 0 | 0 | 0 | 0 | 0 | 0 | 0 | 0 | 0 | 0 | 0 | 0 | 0 | 0 | 0 | 0 | 0 | 0 | 0 | pest or weed control at 500 g/ha ([1]; postemergence, 0 to 100 scale, 0 is no effect, 100 is complete control, read-out: Ragweed plant response rating): 0%; plant injury at 500 g/ha (corn (Zea mays); 500 g ai/ha, postemergence, 0 to 100 scale, 0 is no effect, 100 is complete control, read-out: Corn plant response rating): 0%; pest or weed control at 500 g/ha ([2]; postemergence, 0 to 100 scale, 0 is no effect, 100 is complete control, read-out: Galium plant response rating): 0%; pest or weed control at 500 g/ha ([3]; postemergence, 0 to 100 scale, 0 is no effect, 100 is complete control, read-out: Pigweed plant response rating): 0%; pest or weed control at 500 g/ha ([4]; postemergence, 0 to 100 scale, 0 is no effect, 100 is complete control, read-out: Foxtail, Giant plant response rating): 0%; pest or weed control at 500 g/ha ([5]; postemergence, 0 to 100 scale, 0 is no effect, 100 is complete control, read-out: Ryegrass, Italian plant response rating): 0%; plant injury at 125 g/ha ([6]; 125 g ai/ha, postemergence, visual injury vs untreated controls after approx. 10 d, 0 = no effect, 100 = complete control, read-out: Wheat plant response rating (0 to 100 scale)): 0%; plant injury at 500 g/ha ([6]; postemergence, 0 to 100 scale, 0 is no effect, 100 is complete control, read-out: Wheat plant response rating): 0%; pest or weed control at 500 g/ha (Kochia (Kochia scoparia) [7]; postemergence, 0 to 100 scale, 0 is no effect, 100 is complete control, read-out: Kochia plant response rating): 0%; pest or weed control at 500 g/ha ([8]; postemergence, 0 to 100 scale, 0 is no effect, 100 is complete control, read-out: Barnyardgrass plant response rating): 0%
CN1C[C@H](c2ccc(F)c(C#N)c2)[C@@H](C(=O)Nc2ccccc2F)C1=O [Compound 1254] | 0 | 20 | 30 | 0 | 80 | 0 | 0 | 80 | 0 | 30 | 20 | 70 | 90 | 100 | 0 | 40 | 20 | 70 | 100 | 100 | pest or weed control at 500 g/ha ([1]; Postemergence, visual injury, 0 to 100 scale (0 no effect, 100 complete control), approx. 10 d, read-out: Plant response rating, Ragweed): 0%; Corn plant response rating (crop injury, 0 = no effect, 100 = complete kill) at 500 g/ha (corn (Zea mays); Postemergence, 500 g ai/ha, visual injury, 0 to 100 scale (0 no effect, 100 complete control), approx. 10 d): 50%; pest or weed control at 500 g/ha ([2]; Postemergence, visual injury, 0 to 100 scale (0 no effect, 100 complete control), approx. 10 d, read-out: Plant response rating, Galium): 50%; pest or weed control at 500 g/ha ([3]; Postemergence, visual injury, 0 to 100 scale (0 no effect, 100 complete control), approx. 10 d, read-out: Plant response rating, Pigweed): 20%; pest or weed control at 500 g/ha ([4]; Postemergence, visual injury, 0 to 100 scale (0 no effect, 100 complete control), approx. 10 d, read-out: Plant response rating, Foxtail, Giant): 80%; pest or weed control at 500 g/ha ([5]; Postemergence, visual injury, 0 to 100 scale (0 no effect, 100 complete control), approx. 10 d, read-out: Plant response rating, Ryegrass, Italian): 70%; plant injury at 500 g/ha ([6]; Postemergence, visual injury, 0 to 100 scale (0 no effect, 100 complete control), approx. 10 d, read-out: Plant response rating, Wheat): 40%; pest or weed control at 500 g/ha (Kochia (Kochia scoparia) [7]; Postemergence, visual injury, 0 to 100 scale (0 no effect, 100 complete control), approx. 10 d, read-out: Plant response rating, Kochia): 40%; pest or weed control at 500 g/ha ([8]; Postemergence, visual injury, 0 to 100 scale (0 no effect, 100 complete control), approx. 10 d, read-out: Plant response rating, Barnyardgrass): 90%

Source: patent US12077503B2, “Substituted cyclic amides and their use as herbicides” (FMC CORPORATION, priority 2015, dated 2024)
